Results published in PubChem BioAssay (NCI).
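Step 1: Grow cells in 96-well plates. Step 2: Expose to compound for 48 hours at 5 concentrations. Step 3: Interpolate endpoints linearly; if unreached, use highest concentration. The concentration for 50% growth inhibition is given as GI50. At the TGI there is no net growth.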

What was measured:
Assay in all cases: growth of human tumour cells (NCI), 48 h
OVCAR-3 ovarian = test system: OVCAR-3 ovarian
HCT-15 colon = test system: HCT-15 colon
T-47D breast = test system: T-47D breast
SK-MEL-28 melanoma = test system: SK-MEL-28 melanoma
NCI-H522 lung = test system: NCI-H522 lung
786-0 renal = test system: 786-0 renal
PC-3 prostate = test system: PC-3 prostate
A498 renal = test system: A498 renal
NCI/ADR-RES ovarian = test system: NCI/ADR-RES ovarian
SK-MEL-2 melanoma = test system: SK-MEL-2 melanoma

SMILES | TGI (OVCAR-3 ovarian) | TGI (HCT-15 colon) | TGI (T-47D breast) | TGI (SK-MEL-28 melanoma) | TGI (NCI-H522 lung) | TGI (786-0 renal) | TGI (PC-3 prostate) | TGI (A498 renal) | TGI (NCI/ADR-RES ovarian) | GI50 (OVCAR-3 ovarian) | GI50 (HCT-15 colon) | GI50 (SK-MEL-28 melanoma) | GI50 (NCI-H522 lung) | GI50 (786-0 renal) | GI50 (PC-3 prostate) | GI50 (SK-MEL-2 melanoma) | TGI (SK-MEL-2 melanoma) | GI50 (NCI/ADR-RES ovarian) | GI50 (T-47D breast) | GI50 (A498 renal)
Cc1ccc(S(=O)(=O)NCCCCC(N)C(=O)O)cc1 (stereo not drawn) | > 100 µM | > 100 µM | > 100 µM | > 100 µM | > 100 µM | > 100 µM | > 100 µM | > 100 µM | > 100 µM | – | – | – | – | – | – | – | – | – | – | –
Cc1ccc(NC(=O)c2cc(S(=O)(=O)Nc3nnc(-c4ccccc4)c(-c4ccccc4)n3)c(SCc3ccccc3)cc2Cl)cc1 | 35.1 µM | 39.1 µM | – | > 100 µM | > 100 µM | > 100 µM | 49.1 µM | – | 41.2 µM | 17.5 µM | 17.5 µM | 29.5 µM | 42.4 µM | 33.9 µM | 18.2 µM | 49 µM | > 100 µM | 20.4 µM | – | –
COc1cc(-c2nccc3[nH]c(-c4ccc5cc[nH]c5c4)nc23)cc(OC)c1OC | – | 1.31 µM | 4.38 µM | – | – | 2.03 µM | 4.74 µM | – | 10.7 µM | – | < 0.01 µM | – | – | < 0.01 µM | < 0.01 µM | < 0.01 µM | 3.06 µM | 0.01 µM | 1.26 µM | –
CC1NOC(=O)C1N=Nc1ccc(Cl)cc1Cl (stereo not drawn) | 36.9 µM | 38.3 µM | – | > 100 µM | 35.1 µM | 41.9 µM | – | 99.5 µM | – | – | – | – | – | – | – | – | 75 µM | – | – | –
ClCCOCCn1cnc2c(Cl)nc(Cl)nc21 | 15.4 µM | 18.9 µM | 36.2 µM | 20.1 µM | 50 µM | 44 µM | 31.5 µM | 32.1 µM | 41.4 µM | 4.68 µM | 4.89 µM | 7.09 µM | 20 µM | 19.4 µM | 14 µM | – | – | 17.9 µM | 14.2 µM | 16.2 µM
C[C@H](C(=O)O)C(=O)NC(=O)N(Cc1ccccc1)N=O | > 100 µM | > 100 µM | – | > 100 µM | – | > 100 µM | – | > 100 µM | – | – | – | – | – | – | – | – | > 100 µM | – | – | –
CC(=O)OCC(=O)[C@@]1(O)CC[C@H]2[C@@H]3C[C@H](C)C4=CC(=O)C=C[C@]4(C)[C@@]3(F)[C@@H](O)C[C@@]21C | > 100 µM | > 100 µM | – | > 100 µM | > 100 µM | > 100 µM | – | – | – | – | – | – | – | – | – | – | > 100 µM | – | – | –
OC(c1ccccc1Br)(c1ccccc1Br)C(F)(F)F | 51.7 µM | > 100 µM | – | 95.5 µM | 26.1 µM | 35.5 µM | – | 51.9 µM | – | – | – | – | – | – | – | – | 35.5 µM | – | – | –
O=C(CCCC(=O)Nc1ccc(Cl)cc1Cl)CC(=O)c1ccc2ccccc2c1 | > 100 µM | > 100 µM | – | > 100 µM | – | > 100 µM | – | – | – | – | – | – | – | – | – | – | > 100 µM | – | – | –
N#CC1CC(c2ccccc2)Nc2cc(Cl)ccc2N1 (stereo not drawn) | 57.1 µM | > 100 µM | – | > 100 µM | 21.7 µM | > 100 µM | – | > 100 µM | – | – | – | – | – | – | – | – | > 89.2 µM | – | – | –
c1ccc(C(c2ccccc2)c2ccccn2)cc1 | > 100 µM | > 100 µM | – | > 100 µM | – | > 100 µM | – | > 100 µM | – | – | – | – | – | – | – | – | > 100 µM | – | – | –
O=C1NC(=O)C2C(=O)NC(=O)C1C2Cc1ccco1 (stereo not drawn) | > 100 µM | > 100 µM | – | > 100 µM | > 100 µM | > 100 µM | – | > 100 µM | – | – | – | – | – | – | – | – | > 100 µM | – | – | –
COc1ccc(-c2nc3ccc(Cc4ccc5nc(-c6ccc(OC)cc6)[nH]c5c4)cc3[nH]2)cc1 | 0.0503 µM | – | – | 2.49 µM | 0.0535 µM | 0.381 µM | 1.2 µM | 0.193 µM | 1.84 µM | 0.0217 µM | – | 0.252 µM | 0.0171 µM | 0.0358 µM | 0.0428 µM | 0.0404 µM | 1.75 µM | 0.0354 µM | – | 0.018 µM
CCOC(=O)C1(C)CCC(C(C(=O)O)C(=O)O)CC1=O (stereo not drawn) | > 100 µM | > 100 µM | – | > 100 µM | > 100 µM | > 100 µM | – | > 100 µM | – | – | – | – | – | – | – | – | – | – | – | –
CCc1ccc(Nc2cc(C)c3ccc(O)cc3n2)cc1 | 27.8 µM | 12.8 µM | 23.3 µM | 24.7 µM | – | 19.9 µM | 18.5 µM | 30.6 µM | > 100 µM | 11.7 µM | 2.95 µM | 11.7 µM | – | 6.07 µM | 4.79 µM | 9.97 µM | 23.6 µM | 6.44 µM | 4.83 µM | 16.6 µM
O=NN(CCCl)C(=O)NC1CCC(CC(=O)O)CC1 (stereo not drawn) | > 100 µM | > 100 µM | – | > 100 µM | > 100 µM | > 100 µM | – | > 100 µM | > 100 µM | – | – | – | – | – | – | – | > 100 µM | – | – | –
C(=Nc1nc(SCc2ccccc2)nc2[nH]ncc12)c1cccs1 | > 100 µM | > 100 µM | 52.8 µM | > 100 µM | > 100 µM | > 100 µM | > 100 µM | – | > 100 µM | > 100 µM | 85.4 µM | 31.3 µM | 59.2 µM | 79.7 µM | 32.6 µM | 77.4 µM | > 100 µM | 49.6 µM | 21.9 µM | –
COC(=O)C1=C(C(=O)OC)C2(c3ccccc3)OC1(c1ccccc1)c1cc3ccccc3cc12 | 2.68 µM | 3.88 µM | – | 3.82 µM | – | 2.7 µM | – | – | – | – | – | – | – | – | – | – | 3.13 µM | – | – | –
CC(=O)[CH-]C(=O)c1ccccc1.[C-]#[O+].[C-]#[O+].[Ir] | – | > 100 µM | – | > 100 µM | – | > 100 µM | – | – | – | – | > 100 µM | > 100 µM | – | > 100 µM | – | > 100 µM | > 100 µM | – | – | –
COc1ccccc1CNCCN1C(=O)c2ccc3c4c(ccc(c24)C1=O)C(=O)N(CCNCc1ccccc1OC)C3=O | 0.676 µM | – | 1.27 µM | 2.87 µM | 0.314 µM | 0.37 µM | 0.963 µM | 2.92 µM | 0.831 µM | 0.207 µM | – | 1.46 µM | 0.137 µM | 0.187 µM | 0.317 µM | 0.712 µM | 2.24 µM | 0.283 µM | 0.481 µM | 1.49 µM
